From US9283202B2, “Stable peracid-containing compositions” (CHD Bioscience, Inc., priority 2012, dated 2016)

Assay: active ingredient concentration over time in 50% ethanol solution (pullulan precipitating agent)
Assay type: physicochemical
Settings: 50% ethanol solution in buffer, 25 minutes, one data point every five minutes (FIG. 7)
Protocol: FIGS. 6-8 show examples of removing pullulan by precipitation using an alcohol or PEG. As an alternative, pullulan can be removed by precipitation using either an alcohol or polyethylene glycol (PEG). In this approach, the precipitating agent is added to the solution and causes pullulan to form a white solid. The active ingredient is not affected by this addition. The solid can be stopped from getting into the solution by either an appropriate container or a simple filter. […] In FIG. 7, a 50% ethanol solution was prepared in buffer. The active ingredient concentration was measured over time for 25 minutes (one data point every five minutes). […] Furthermore, measurements of the same concentration in straight buffer yield the same measured concentration of active ingredient.

## CC(=O)C(=O)OO [active ingredient, peroxy pyruvic acid]
  measured concentration of active ingredient over time: no statistical difference
